# US20090143478A1, “Milled Submicron Organic Biocides With Narrow Particle Size Distribution, and Uses Thereof” (PhibroWood, LLC, priority 2004, published 2009)
# Like-named read-outs stand apart in the source and are kept apart here.
# Tests used:
# [1] = cited from earlier work
# [2] = format: physicochemical; conditions: 0.4-0.5 mm zirconium silicate
# Protocol: (§1) The laboratory-sized vertical mill was provided by C B Mills, model# L-3-J. The mill has a 2 liter capacity and is jacketed for cooling. Unless otherwise specified, ambient water was cycled through the mill cooling jacket during operation. The internal dimensions are 3.9″ diameter by 9.1″ height. The mill uses a standard 3×3″ disk agitator (mild steel) on a stainless steel shaft, and it operates at 2,620 rpm.
# (§2) The media used in this Example was 0.4-0.5 mm zirconium silicate beads supplied by C B Mills. All particle size determinations were made with a Sedigraph™ 5100T manufactured by Micromeritics, which uses x-ray detection and bases calculations of size on Stokes' Law.
# The total batch weight was about 600 g.
# [3] = at 170 C; cited from earlier work
# [4] = Wet milling chlorothalonil with 0.5-0.6 mm cerium-doped zirconium oxide beads, particle size by Sedigraph; format: physicochemical
# Protocol: as §1, §2
# The same mill and conditions were used in this experiment as in experiment 1. However, the grinding media was 0.5-0.6 mm cerium-doped zirconium oxide beads obtained from CB Mills. The density of the cerium doped zirconium oxide is ˜6.0 g/cm^3. […] The total batch weight was about 600 g.
# [5] = 0.1 cm zirconia, 10 minutes, US 2004/0063847, 2003/0040569
# [6] = Milling Time 0 Mins., 0.5-0.6 mm cerium-doped zirconium oxide
# [7] = Milling Time 90 Mins., 0.5-0.6 mm cerium-doped zirconium oxide
# [8] = Milling Time 240 Mins., 0.5-0.6 mm cerium-doped zirconium oxide
# [9] = obtainable in 6 hours, 0.5 mm zirconia milling media
compound,measurement,setting,value
CC1OC(C)OC(C)OC(C)O1 (stereo not drawn) [metaldehyde],diameter below which 90% of the particles lie,[1]; [5],less than 2.5 microns
same,mean volume diameter,[1]; [5],less than 1.5 microns
"N#Cc1c(Cl)c(Cl)c(Cl)c(C#N)c1Cl [chlorothalonil, 2,4,5,6-tetrachloro-1,3-dicyanobenzene]",size below which 90% of the number of particles lie,"[1]; 0.1 cm zirconium beads, 3000 rpm, 10 minutes, US 2004/0024099",below 0.5 microns
same,mean / average particle diameter after milling with 2 mm glass beads,"[1]; U.S. Pat. No. 5,360,783",2.3 microns
same,average particle size of the product,"[1]; U.S. Pat. No. 5,667,795, 40% chlorothalonil, 5.6% zinc oxide, wet mill",3 microns
same,Volume % With Diameter Greater Than 2 μm,[2]; Milling Time 0 Mins.,95 Volume %
same,Volume % With Diameter Greater Than 5 μm,[2]; Milling Time 0 Mins.,48 Volume %
same,Volume % With Diameter Greater Than 10 μm,[2]; Milling Time 0 Mins.,10 Volume %
same,d50,[2]; Milling Time 0 Mins.,4.9 μm
same,Volume % With Diameter Greater Than 1 μm,[2]; Milling Time 30 Mins.,68 Volume %
same,Volume % With Diameter Greater Than 2 μm,[2]; Milling Time 30 Mins.,21 Volume %
same,Volume % With Diameter Greater Than 5 μm,[2]; Milling Time 30 Mins.,4 Volume %
same,Volume % With Diameter Greater Than 10 μm,[2]; Milling Time 30 Mins.,0 Volume %
same,d50,[2]; Milling Time 30 Mins.,1.3 μm
same,Volume % With Diameter Greater Than 1 μm,[2]; Milling Time 60 Mins.,50 Volume %
same,Volume % With Diameter Greater Than 2 μm,[2]; Milling Time 60 Mins.,11 Volume %
same,Volume % With Diameter Greater Than 5 μm,[2]; Milling Time 60 Mins.,2 Volume %
same,Volume % With Diameter Greater Than 10 μm,[2]; Milling Time 60 Mins.,4 Volume %
same,d50,[2]; Milling Time 60 Mins.,1.0 μm
same,Volume % With Diameter Greater Than 1 μm,[2]; Milling Time 90 Mins.,94 Volume %
same,Volume % With Diameter Greater Than 2 μm,[2]; Milling Time 90 Mins.,22 Volume %
same,Volume % With Diameter Greater Than 5 μm,[2]; Milling Time 90 Mins.,23 Volume %
same,Volume % With Diameter Greater Than 10 μm,[2]; Milling Time 90 Mins.,18 Volume %
same,d50,[2]; Milling Time 90 Mins.,1.4 μm
same,Volume % With Diameter Greater Than 2 μm,[2]; Milling Time 120 Mins.,4 Volume %
same,Volume % With Diameter Greater Than 5 μm,[2]; Milling Time 120 Mins.,0 Volume %
same,Volume % With Diameter Greater Than 10 μm,[2]; Milling Time 120 Mins.,2 Volume %
same,d50,[2]; Milling Time 120 Mins.,1.03 μm
same,Volume % With Diameter Greater Than 1 μm,[2]; Milling Time 150 Mins.,58 Volume %
same,Volume % With Diameter Greater Than 2 μm,[2]; Milling Time 150 Mins.,6 Volume %
same,Volume % With Diameter Greater Than 5 μm,[2]; Milling Time 150 Mins.,2 Volume %
same,Volume % With Diameter Greater Than 10 μm,[2]; Milling Time 150 Mins.,0 Volume %
same,d50,[2]; Milling Time 150 Mins.,1.12 μm
same,Volume % With Diameter Greater Than 1 μm,[2]; Milling Time 180 Mins.,53 Volume %
same,Volume % With Diameter Greater Than 2 μm,[2]; Milling Time 180 Mins.,7 Volume %
same,Volume % With Diameter Greater Than 5 μm,[2]; Milling Time 180 Mins.,2 Volume %
same,Volume % With Diameter Greater Than 10 μm,[2]; Milling Time 180 Mins.,2 Volume %
same,d50,[2]; Milling Time 180 Mins.,1.07 μm
same,Volume % With Diameter Greater Than 1 μm,[2]; Milling Time 270 Mins.,54 Volume %
same,Volume % With Diameter Greater Than 2 μm,[2]; Milling Time 270 Mins.,8 Volume %
same,Volume % With Diameter Greater Than 5 μm,[2]; Milling Time 270 Mins.,0 Volume %
same,Volume % With Diameter Greater Than 10 μm,[2]; Milling Time 270 Mins.,2 Volume %
same,d50,[2]; Milling Time 270 Mins.,1.09 μm
same,Volume % With Diameter Greater Than 1 μm,[2]; Milling Time 450 Mins.,56 Volume %
same,Volume % With Diameter Greater Than 2 μm,[2]; Milling Time 450 Mins.,21 Volume %
same,Volume % With Diameter Greater Than 5 μm,[2]; Milling Time 450 Mins.,8 Volume %
same,Volume % With Diameter Greater Than 10 μm,[2]; Milling Time 450 Mins.,12 Volume %
same,d50,[2]; Milling Time 450 Mins.,1.15 μm
same,volatility,[3],9.2 mmHg
same,Volume % With Diameter Greater Than 1 μm,[4]; [6],92 Volume %
same,Volume % With Diameter Greater Than 2 μm,[4]; [6],77 Volume %
same,Volume % With Diameter Greater Than 5 μm,[4]; [6],30 Volume %
same,Volume % With Diameter Greater Than 10 μm,[4]; [6],8 Volume %
same,d50,[4]; [6],3.44 μm
same,Volume % With Diameter Greater Than 0.4 μm,[4]; [7],22 Volume %
same,Volume % With Diameter Greater Than 1 μm,[4]; [7],3 Volume %
same,Volume % With Diameter Greater Than 2 μm,[4]; [7],3 Volume %
same,Volume % With Diameter Greater Than 5 μm,[4]; [7],3 Volume %
same,Volume % With Diameter Greater Than 10 μm,[4]; [7],3 Volume %
same,Volume % With Diameter Greater Than 0.2 μm,[4]; [8],51 Volume %
same,Volume % With Diameter Greater Than 0.4 μm,[4]; [8],3 Volume %
same,Volume % With Diameter Greater Than 1 μm,[4]; [8],3 Volume %
same,Volume % With Diameter Greater Than 2 μm,[4]; [8],2 Volume %
same,Volume % With Diameter Greater Than 5 μm,[4]; [8],1 Volume %
same,Volume % With Diameter Greater Than 10 μm,[4]; [8],0 Volume %
same,d50,[4]; [8],0.21 μm
same,d95 within a factor of the d50,[4]; milled chlorothalonil of the example,≤ 2
same,d95,"[4]; obtainable in 90 minutes, 0.5 mm zirconia milling media",less than 1 micron
same,d50,[4]; [9],less than 0.3 microns
same,d95,[4]; [9],less than 0.4 microns
same,"increase in number of particles per unit of mass over the standard products, factor",[4]; product obtained after 90 minutes of milling (first statement),more than 30
same,"increase in number of particles per unit of mass over the standard products, factor",[4]; product obtained after 90 minutes of milling (second statement),more than 1000
